Data on 28 compounds can be found in patent US9066922B2, “Pharmaceutical composition for the treatment or prevention of diseases involving obesity, diabetes, metabolic syndrome, neuro-degenerative diseases and mitochondria dysfunction diseases” (MD BIOALPHA CO., LTD., priority 2005, dated 2015).

Data set [1] relates to AMPK. Description: Determination of AMPK activation in C2C12 myoblast cells (SAMS peptide, [γ-32P]ATP). Type of data set: cell-based. Particulars: differentiated C2C12 myoblast cells, 5 μg/ml, compared with control (DMSO 0.5% = 1). How it is done: Myoblast cells, C2C12, were cultured in DMEM containing 10% bovine calf serum. When a cell density reached a range of about 85% to 90%, the culture medium was replaced with a medium containing 1% bovine calf serum to induce differentiation of cells. The thus-differentiated myoblast cells were treated with samples synthesized in Examples 1 through 29 at a concentration of 5 μg/ml, and compared with a control group. Enzymatic activity of AMPK was determined as follows. Firstly, C2C12 cells were lysed to obtain protein extracts and then ammonium sulfate was added to a final concentration of 30%, thereby precipitating proteins. Protein precipitates were dissolved in a buffer (62.5 mM Hepes, pH 7.2, 62.5 mM NaCl, 62.5 mM NaF, 1.25 mM Na pyrophosphate, 1.25 mM EDTA, 1 mM DTT, 0.1 mM PMSF, and 200 μM AMP). Thereafter, 200 μM SAMS peptide (HMRSAMSGLHLVKRR: the underlined serine residue is a phosphorylation site, as an AMPK phosphorylation site of acetyl-CoA carboxylase) and [γ-32P]ATP were added thereto and reactants were reacted for 10 minutes at 30° C. This was followed by spotting of the resulting reaction solution on p81 phosphocellulose paper. The p81 paper was washed with a 3% phosphoric acid solution and radioactivity thereof was measured. For each reaction condition, reactions involving no SAMS peptide were also conducted and basic values were subtracted from the thus-observed values.

Data set [2] has as its system C57BL/6JL Lep ob/Lep ob mice. Description: Weight loss effects in obese mice (ob/ob): body weight. Type of data set: in vivo. Particulars: 100 mg/kg for 26 days; for change in vivo at 100 mg/kg: Mus musculus, 624 h, read-out: Increase in BW. An excerpt: (§1) 10-week-old C57BL/6JL Lep ob/Lep ob male mice having obesity characteristics and predisposition were purchased from Daehan Biolink Co., Ltd. (Chungchongbuk-do, Korea). Animals were raised in a breeding room maintained at a temperature of 23 C, 55% humidity, illumination of 300 to 500 lux, a 12-h light/dark (L/D) cycle, and ventilation of 10 to 18 times/hr. Animals were fed ad libitum pellets of Purina Rodent Laboratory Chow 5001 (purchased from Purina Mills Inc., St. Louis, Mo., USA) as a solid feed for experimental animals and tap water as drinking water. Mice were allowed to acclimate to new environment of the breeding room for two weeks and were then administered some pyrano-o-naphthoquinone and furano-o-naphthoquinone derivatives synthesized according to the present invention at doses of 100 mg/kg for 26 days. Observation was made on changes in body weight, blood glucose and dietary intake, with respect to a time course of administration. After administration was complete, Computed Tomography (CT) was performed to confirm changes in adipose tissue distribution of animals, changes in fat distribution of tissues in various organs, changes in sizes of adipocytes, and changes in glucose, lipid and enzyme levels in blood and liver.

Data set [3] relates to C57BL/6JL Lep ob/Lep ob mice. Description: Blood lipid, glucose and enzyme levels in obese mice (ob/ob). It counts as in vivo. Further details: unit not given here. The settings on record: 100 mg/kg for 26 days.
From the text: as §1

Data set [4] deals with Sprague-Dawley rats. Description: Acute toxicity test, oral administration. It counts as in vivo. Particulars: oral, 50, 100 and 200 mg/kg, observed for 2 weeks, vs control group.
The subject of data set [5] is Sprague-Dawley rats. Description: Acute toxicity test, peritoneal administration. Type of data set: in vivo. Particulars: peritoneal, 50, 100 and 200 mg/kg, observed for 2 weeks, vs control group.

In data set [1], `CC1OC2=C(C(=O)C(=O)c3ccccc32)C1(C)C` (stereo not shown) [Compound 2, Dunnione] showed an AMPK fold of 1.4 fold. In data set [2], the “Final BW” value was found to be 28.7 g and the change in vivo at 100 mg/kg is -46.2%. In data set [3], this compound showed a Cholesterol of 123, a GOT of 50, a GPT of 43 and a Glucose of 125. Besides, the Triglyceride in data set [3] is on record as 154. For the same compound, the visually observable symptoms result in data set [4] was “no visually observable symptoms with exception of weight loss”. In addition, the visually observable symptoms entry in data set [5] is given as “no visually observable symptoms with exception of weight loss”.

`CC1C2=C(OC1(C)C)c1ccccc1C(=O)C2=O` (stereo not shown) [Compound 3] showed an AMPK fold in data set [1] of 3.2 fold. For the same compound, in data set [2], the “Final BW” value was 39.7 g and the change in vivo at 100 mg/kg was -27.9%. In data set [3], this compound showed a Cholesterol of 128, a GOT of 36, a GPT of 32 and a Glucose of 122. The compound also yielded a Triglyceride in data set [3] of 129. The visually observable symptoms result in data set [4] is “no visually observable symptoms with exception of weight loss”. Also, in data set [5], the visually observable symptoms result is recorded as “no visually observable symptoms with exception of weight loss”.

For the compound `CC1(C)CC2=C(O1)c1ccccc1C(=O)C2=O` [Compound 4], the AMPK fold in data set [1] turned out to be 2.2 fold. In addition, in data set [2], the “Final BW” value came out at 40.0 g and the change in vivo at 100 mg/kg was -27.8%. In data set [3], this compound had a Cholesterol of 130, a GOT of 48, a GPT of 44 and a Glucose of 134. In addition, the Triglyceride in data set [3] came to 148. Further, the visually observable symptoms result in data set [4] is listed as “no visually observable symptoms with exception of weight loss”. Also, the visually observable symptoms result in data set [5] is given as “no visually observable symptoms with exception of weight loss”.

On to `CC1CC2=C(O1)c1ccccc1C(=O)C2=O` (stereo not shown) [Compound 5], for which the AMPK fold in data set [1] stood at 1.3 fold. Besides, in data set [2], the “Final BW” value turned out to be 36.1 g and the change in vivo at 100 mg/kg is -39.5%. In data set [3], this compound yielded a Cholesterol of 117, a GOT of 38, a GPT of 29 and a Glucose of 112. The same compound showed a Triglyceride in data set [3] of 137.

Regarding `O=C1C(=O)c2ccccc2C2=C1CCO2` [Compound 6], in data set [1], the AMPK fold was found to be 2.2 fold.

Regarding `O=C1C(=O)c2ccccc2C2=C1CCC(c1ccccc1)O2` (stereo not shown) [Compound 7], the AMPK fold in data set [1] worked out at 2.2 fold.

In data set [1], `CC1OC2=C(C(=O)C(=O)c3ccccc32)C1c1ccccc1` (stereo not shown) [Compound 8] registered an AMPK fold of 1.9 fold.

With `C=C1OC2=C(C(=O)C(=O)c3ccccc32)C1(C)C` [Compound 9], in data set [1], the AMPK fold is 2.6 fold.

In data set [1], `COC1(C)OC2=C(C(=O)C(=O)c3ccccc32)C1(C)C` (stereo not shown) [Compound 10] had an AMPK fold of 1.6 fold.

In turn, `CC1(C)C=CC2=C(O1)c1ccccc1C(=O)C2=O` [Compound 11] showed an AMPK fold in data set [1] of 1.3 fold.

In the case of `C=CC1(C)CCC2=C(O1)c1ccccc1C(=O)C2=O` (stereo not shown) [Compound 12], the AMPK fold in data set [1] amounted to 2.1 fold. The visually observable symptoms entry in data set [4] and in data set [5] was “no visually observable symptoms with exception of weight loss” throughout.

In turn, `CC(C)=CC1(C)CCC2=C(O1)c1ccccc1C(=O)C2=O` (stereo not shown) [Compound 13] registered an AMPK fold in data set [1] of 2.3 fold. Moreover, the visually observable symptoms entry in data set [4] and in data set [5] was “no visually observable symptoms with exception of weight loss” throughout.

Turning to `CC(C)=C/C(C)=C/C1(C)CCC2=C(O1)c1ccccc1C(=O)C2=O` (stereo not shown) [Compound 14], in data set [1], the AMPK fold was determined as 1.5 fold. For the same compound, in data set [2], the “Final BW” value is given as 61.3 g and the change in vivo at 100 mg/kg was -4.7%. In data set [3], the Cholesterol is recorded as 160, the GOT stood at 95, the GPT came to 87 and the Glucose was 193. Also, the Triglyceride in data set [3] is recorded as 216. Besides, the visually observable symptoms entry in data set [4] was “no visually observable symptoms with exception of weight loss”. Besides, the visually observable symptoms entry in data set [5] is “no visually observable symptoms with exception of weight loss”.

In turn, `C[C@H]1OC2=C(C(=O)C(=O)c3ccccc32)[C@@H]1C` [Compound 16] showed an AMPK fold in data set [1] of 2.5 fold. The visually observable symptoms result in data set [4] and in data set [5] was “no visually observable symptoms with exception of weight loss” throughout.

In turn, `C[C@@H]1C2=C(O[C@@H]1C)c1ccccc1C(=O)C2=O` [Compound 17] registered an AMPK fold in data set [1] of 2.2 fold. In addition, the visually observable symptoms entry in data set [4] and in data set [5] was “no visually observable symptoms with exception of weight loss” throughout.

Compound `CC1CCC2=C(O1)c1ccccc1C(=O)C2=O` (stereo not shown) [Compound 18] returned an AMPK fold in data set [1] of 2.3 fold.

`CCC1CC2=C(O1)c1ccccc1C(=O)C2=O` (stereo not shown) [Compound 19] came in with an AMPK fold in data set [1] of 2.1 fold.

In data set [1], `CC1(C)CCCC2(C)OC3=C(CC12)C(=O)C(=O)c1ccccc13` (stereo not shown) [Compound 20] yielded an AMPK fold of 2.3 fold.

`CC1(C)CCC2=C(O1)c1cc(Cl)ccc1C(=O)C2=O` [Compound 21] showed an AMPK fold in data set [1] of 2.2 fold. In data set [2], the “Final BW” value worked out at 41.1 g and the change in vivo at 100 mg/kg was -28.3%. In data set [3], this compound returned a Cholesterol of 127, a GOT of 46, a GPT of 39 and a Glucose of 127. The compound further registered a Triglyceride in data set [3] of 138.

As to `Cc1ccc2c(c1)C1=C(CCC(C)(C)O1)C(=O)C2=O` [Compound 22], the AMPK fold in data set [1] turned out to be 1.9 fold. In addition, in data set [2], the “Final BW” value was determined as 48.7 g and the change in vivo at 100 mg/kg is -16.5%. In addition, in data set [3], the Cholesterol is listed as 132, the GOT was determined as 57, the GPT was found to be 49 and the Glucose amounted to 142. In addition, in data set [3], the Triglyceride turned out to be 168.

Turning to `CCC1(C)CCC2=C(O1)c1ccccc1C(=O)C2=O` (stereo not shown) [Compound 24], in data set [1], the AMPK fold was 2.1 fold. In addition, the visually observable symptoms result in data set [4] and in data set [5] was “no visually observable symptoms with exception of weight loss” each time.

Take `CCC1(CC)CCC2=C(O1)c1ccccc1C(=O)C2=O` [Compound 25]: in data set [1], the AMPK fold was 1.8 fold. Further, the visually observable symptoms result in data set [4] and in data set [5] was “no visually observable symptoms with exception of weight loss” in each case.

For the compound `O=C1C(=O)c2ccccc2C2=C1CCC1(CCCCC1)O2` [Compound 27], the AMPK fold in data set [1] is 1.7 fold.

In turn, `O=C1C(=O)c2ccccc2C2=C1CCC1(CCCC1)O2` [Compound 28] returned an AMPK fold in data set [1] of 1.7 fold.

In data set [1], `Cc1cc2c(o1)-c1ccccc1C(=O)C2=O` [Compound 29] had an AMPK fold of 1.3 fold.

Consider `Cc1coc2c1C(=O)C(=O)c1ccccc1-2` [Compound 30], for which, in data set [1], the AMPK fold is recorded as 1.2 fold.

`Cc1ccc2c(c1)C(=O)C(=O)c1c(C)coc1-2` [Compound 31]: in data set [1], the AMPK fold is given as 1.2 fold.

In data set [1], `Cc1ccc2c(c1)-c1occ(C)c1C(=O)C2=O` [Compound 32] yielded an AMPK fold of 1.3 fold.
